The experiment concerns the target T1, PltZ (Pseudomonas protegens, UniProt Q4KCY3).
T1 construct: full-length, N-terminal 6xHis tag (pET28a), expressed in E. coli BL21 (DE3), Ni-NTA purified
Kind of experiment: isothermal titration calorimetry. Format: binding. For orientation: ITC needs no label: the signal is the heat of the interaction.

T1 sequence (Q4KCY3 entry or part of it): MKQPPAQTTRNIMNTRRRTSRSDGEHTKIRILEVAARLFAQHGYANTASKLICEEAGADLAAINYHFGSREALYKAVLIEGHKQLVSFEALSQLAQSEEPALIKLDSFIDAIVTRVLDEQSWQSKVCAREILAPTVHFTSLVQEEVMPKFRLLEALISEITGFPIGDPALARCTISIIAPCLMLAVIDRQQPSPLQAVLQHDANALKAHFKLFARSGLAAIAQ

The term Kd denotes the constant that tells how readily two partners part at equilibrium. Read a high Kd as weaker binding. Turning to `O=C(c1cc(Cl)c(Cl)[nH]1)c1c(O)cccc1O` [pyoluteorin], the Kd is approximately 13.2 nM.

The values above are taken from PMC8305169, “Two Pathway-Specific Transcriptional Regulators, PltR and PltZ, Coordinate Autoinduction of Pyoluteorin in Pseudomonas protegens Pf-5” (Microorganisms, 2021).
